According to patent publication US20240240226A1, “FLUOROGENIC ASSAY FOR RAPID SCREENING OF BACTERIAL BETA-LACTAMASE ACTIVITY” (The Board of Trustees of the Leland Stanford Junior …, priority 2021, published 2024):

Columns and labels:
[1] = Stability test in H2O2 in PBS; type: physicochemical; details: room temperature
Protocol: FIG. 2 illustrates the characterization of CDA with recombinant TEM-1 Bla, esterase, HRP, and H2O2. a) Stability test of CDA in different concentrations of H2O2 in PBS. The signal of PBS was subtracted and the absolute values were plotted. b) Fluorescence enhancement of CDA treated with esterase […], TEM-1 Bla (100 nM) and H2O2 (100 μM or 1 mM). c) Activation of CDA by esterase (1 μg/mL) and TEM-1 Bla (100 nM) with or without oxygen in the reaction. Glass flasks with working solution were continuously vacuumed to maintain a deoxidized environment. Samples were transferred and scanned immediate at each time point in a black 96 well plate. Error bars represent ±SD, n=3. d) Fluorescence enhancement of CDA treated with esterase (1 μg/mL), TEM-1 Bla (100 nM), HRP (1 unit/ml), and H2O2 (1 μM). e) Fluorescence enhancement of different concentrations of CDA treated with esterase (1 μg/mL), TEM-1 Bla (100 nM) and H2O2 (1 mM). f) Fluorescence enhancement of CDA treated with indicated amounts of β-lactamases, esterase (1 μg/mL) and H2O2 (1 mM) after incubation at room temperature for 2 h. […] Data were collected on a Tecan Safire microplate reader with excitation at 570 nm and emission at 600 nm. […]
As oxidation is the essential step in converting β-lactamase/esterase processed CDA to resorufin, the stability of CDA was evaluated in different concentrations of H2O2 (FIG. 2a). […]

K. pneumoniae/KPC = experiment: CDA/H2O2 detection of K. pneumoniae expressing KPC carbapenemase; type: cell-based; details: clinical isolate, H2O2 1 mM, within 2-3 hours
Protocol: FIG. 3 illustrates the characterization of CDA with HRP, H2O2, E. coli expressing TEM-1 Bla (E. coli/TEM-1) and IMP-1 carbapenemase (E. coli/IMP-1), and K. pneumoniae expressing KPC carbapenemase (K. pneumoniae/KPC). a) Fluorescence enhancement of CDA incubated with different concentrations of E. coli expressing TEM-1 Bla. b) Fluorescence enhancement of CDA; HRP (1 unit/mL), H2O2 (1 μM), and either viable E. coli expressing TEM-1 Bla or bacterial lysate extracted from equal c.f.u. per milliliter. c) Fluorescence enhancement of CDA incubated with different concentrations of E. coli expressing TEM-1 Bla (H2O2, 1 mM). d) Fluorescent intensity of E. coli and E. coli/TEM-1 preincubated with CDA for 20 hours upon addition of H2O2 (500 μM) for 5 min. Error bars represent ±SD, n=3. * p<0.0332; **p<0.0021, ****p<0.0001, ns: not significant. e) Fluorescence enhancement of CDA incubated with different concentrations of E. coli expressing IMP-1 carbapenemase in the presence of H2O2 (1 mM). f) Fluorescence enhancement of CDA incubated with different concentrations of K. pneumoniae expressing KPC carbapenemase (H2O2, 1 mM). […] Data were collected on a Tecan Safire microplate reader with excitation at 570 nm and emission at 600 nm. […]
CDA was also tested for detecting K. pneumoniae. […] Similar to E. coli/KPC-3, 10^6 c.f.u./mL KPC-positive K. pneumoniae could be detected within 2-3 hours. […]

CC(=O)Oc1ccc2c(c1)Oc1cc(OC(C)=O)ccc1N2C(=O)OCc1ccc(SCC2=C(C(=O)O)N3C(=O)[C@@H](NC(=O)Cc4ccccc4)[C@H]3SC2)cc1 [CDA, 3-(((4-(((3,7-diacetoxy-10H-phenoxazine-10-carbonyl)oxy)methyl)phenyl)thio)methyl)-8-oxo-7-(2-phenylacetamido)-5-thia-1-azabicyclo[4.2.0]oct-2-ene-2-carboxylic acid]
stability of the sulfur center in H2O2 (LC-MS) ([1]; H2O2 1 mM, 2 hours): stable
spontaneous hydrolysis in H2O2 ([1]; up to 1 mM H2O2 in PBS, within 2 hours): Almost no spontaneous hydrolysis
bacteria concentration detected (K. pneumoniae/KPC): 10^6 c.f.u./mL
